Test system: adult patients (aged 18-64 years) with TRD
Assay: Clinician-reported adverse events: incidence and recurrence by Week 1/Week 4 frequency, pooled studies 1 and 2 (ESK + OAD)
Type: in vivo, human
Text: Data were pooled from adult patients (aged 18-64 years) with TRD. Patients had recurrent or single-episode (>2 years) MDD (DSM-5), a Clinician-Rated Inventory of Depressive Symptomatology score of >3 and a total Montgomery-Åsberg Depression Rating Scale (MADRS) score of >2. At screening, depressive symptoms had been non-responsive to adequate trials of ≥1 and ≤5 commercially available OAD in the current depressive episode. Non response was further confirmed by a prospective trial of a different OAD lasting ≥4 weeks and during the screening phase.
In brief, study 1 was a double-blind, placebo-controlled relapse prevention trial comparing the efficacy of ESK versus placebo nasal spray, both in conjunction with a Food and Drug Administration (FDA)-approved OAD, in delaying relapse of depressive symptoms in patients with TRD who were either in stable remission or stable response after four months' treatment with ESK in conjunction with a FDA-approved OAD. Study 2 was an open-label, multicenter study that assessed the long-term safety and efficacy of ESK in conjunction with an FDA-approved OAD in patients with TRD.
The analysis was limited to the two doses of ESK (56 mg and 84 mg) approved for use by the FDA for patients with TRD. Patients received ESK (56 or 84 mg) in conjunction with an OAD twice weekly during the induction phase (Weeks 1-4); once weekly during Weeks 5-8 of the optimization phase: either once weekly or every other week during the remainder of the 12-week optimization phase and the maintenance phase (individualized according to the severity of depressive symptoms [MADRS total score≤/>12] and tolerability).
Patients were monitored for >90 minutes after ESK administration at each treatment session, after which time they could leave the clinical site at the clinician's discretion. AEs were monitored and reported, and safety assessments, including clinical laboratory tests and physical examinations, were conducted throughout the study. Clinician-reported AEs were categorized as mild, moderate, or severe based on clinical judgement (Table 1).
This analysis included any treatment sessions in which patients received ESK (either open-label or blinded). The occurrence and severity of AEs were assessed within the following timeframes: Month 1 (Week 1 and Weeks 2-4), Month 2 (Weeks 5-8), Months 3-6 and Months 6-12. Severity of clinician-reported AEs were scored as 0 (no AE), 1 (mild), 2 (moderate), and 3 (severe). To examine AEs in individual patients over time, only patients who received at least one ESK dose in the following period were included in the analyses of each respective period. Thus, patient data were retained in (i) Week 1 if the patient received ≥1 ESK dose in Weeks 2-4, (ii) Weeks 2-4 if the patient received ≥1 ESK dose in Weeks 5-8, (iii) Weeks 5-8 if the patient received ≥1 ESK dose in Months 3-6, and (iv) Months 3-6 if the patient received ≥1 ESK dose in Months 6-12.
The five most commonly reported treatment-emergent events occurring with ESK plus OAD therapy (dissociation, dizziness, nausea, sedation, and vertigo) were evaluated, each of which has an incidence ≥5% and at least a 2-fold greater incidence than with placebo plus an OAD. 14 Increases in BP were also examined.
Week 1 and Week 4 were set a priori as index weeks because they are the beginning and end of the induction period. Frequencies and maximum-reported severities of AEs reported during these index weeks served as stratifying variables by which to examine recurrence and severities of AE recurrences in future timeframes.

[1] = Months 3-6, overall rate for timeframe
[2] = Months 6-12, AE twice in Week 1
[3] = Months 6-12, overall rate for timeframe
[4] = Week 1, overall rate for timeframe

CN[C@]1(c2ccccc2Cl)CCCCC1=O [esketamine, (S)-2-(2-chlorophenyl)-2-(methylamino)cyclohexanone]
vomiting during later periods (8 participants who had vomiting twice during week 1): none experienced vomiting during later periods
participants experiencing an AE after any subsequent treatment session (AE not reported in week 1): < 10%
Clinician-reported dissociation (Months 3-6, AE once in Week 1): 26.2%
Clinician-reported increased blood pressure (Months 3-6, AE once in Week 1): 36.4%
Clinician-reported sedation (Months 3-6, AE once in Week 1): 0%
Dizziness (Months 3-6, AE once in Week 1): 31.2%
Nausea (Months 3-6, AE once in Week 1): 20.8%
Vertigo (Months 3-6, AE once in Week 1): 28.6%
Clinician-reported dissociation (Months 3-6, AE twice in Week 1): 61.1%
Clinician-reported increased blood pressure (Months 3-6, AE twice in Week 1): 40.0%
Clinician-reported sedation (Months 3-6, AE twice in Week 1): 36.4%
Dizziness (Months 3-6, AE twice in Week 1): 53.0%
Nausea (Months 3-6, AE twice in Week 1): 33.3%
Vertigo (Months 3-6, AE twice in Week 1): 59.5%
Clinician-reported dissociation (Months 3-6, No AE in Week 1): 7.6%
Clinician-reported increased blood pressure (Months 3-6, No AE in Week 1): 3.0%
Clinician-reported sedation (Months 3-6, No AE in Week 1): 3.0%
Dizziness (Months 3-6, No AE in Week 1): 7.5%
Nausea (Months 3-6, No AE in Week 1): 4.5%
Vertigo (Months 3-6, No AE in Week 1): 3.4%
Anxiety (Months 3-6, None in Week 1): 1.2%
Feeling Drunk (Months 3-6, None in Week 1): 0.2%
Hypoesthesia (Months 3-6, None in Week 1): 2.5%
Lethargy (Months 3-6, None in Week 1): 0.2%
Vomiting (Months 3-6, None in Week 1): 1.9%
Anxiety (Months 3-6, Once in Week 1): 10.0%
Feeling Drunk (Months 3-6, Once in Week 1): 16.7%
Hypoesthesia (Months 3-6, Once in Week 1): 20.7%
Lethargy (Months 3-6, Once in Week 1): 40.0%
Vomiting (Months 3-6, Once in Week 1): 21.1%
Anxiety (Months 3-6, Overall): 1.5%
Feeling Drunk (Months 3-6, Overall): 1.5%
Hypoesthesia (Months 3-6, Overall): 5.2%
Lethargy (Months 3-6, Overall): 0.5%
Vomiting (Months 3-6, Overall): 2.5%
Anxiety (Months 3-6, Twice in Week 1): 50.0%
Feeling Drunk (Months 3-6, Twice in Week 1): 100.0%
Hypoesthesia (Months 3-6, Twice in Week 1): 73.3%
Lethargy (Months 3-6, Twice in Week 1): 0%
Vomiting (Months 3-6, Twice in Week 1): 0%
Clinician-reported dissociation [1]: 14.4%
Clinician-reported increased blood pressure [1]: 4.2%
Clinician-reported sedation [1]: 3.5%
Dizziness [1]: 15.6%
Nausea [1]: 7.2%
Vertigo [1]: 8.2%
Clinician-reported dissociation (Months 6-12, AE once in Week 1): 18.5%
Clinician-reported increased blood pressure (Months 6-12, AE once in Week 1): 9.1%
Clinician-reported sedation (Months 6-12, AE once in Week 1): 0%
Dizziness (Months 6-12, AE once in Week 1): 20.8%
Nausea (Months 6-12, AE once in Week 1): 18.2%
Vertigo (Months 6-12, AE once in Week 1): 23.8%
Clinician-reported dissociation [2]: 33.3%
Clinician-reported increased blood pressure [2]: 20.0%
Clinician-reported sedation [2]: 45.5%
Dizziness [2]: 21.2%
Nausea [2]: 8.3%
Vertigo [2]: 38.1%
Clinician-reported dissociation (Months 6-12, No AE in Week 1): 4.6%
Clinician-reported increased blood pressure (Months 6-12, No AE in Week 1): 1.7%
Clinician-reported sedation (Months 6-12, No AE in Week 1): 1.7%
Dizziness (Months 6-12, No AE in Week 1): 4.0%
Nausea (Months 6-12, No AE in Week 1): 4.9%
Vertigo (Months 6-12, No AE in Week 1): 1.7%
Anxiety (Months 6-12, None in Week 1): 2.1%
Feeling Drunk (Months 6-12, None in Week 1): 0.2%
Hypoesthesia (Months 6-12, None in Week 1): 1.6%
Lethargy (Months 6-12, None in Week 1): 1.6%
Vomiting (Months 6-12, None in Week 1): 1.9%
Anxiety (Months 6-12, Once in Week 1): 0%
Feeling Drunk (Months 6-12, Once in Week 1): 33.3%
Hypoesthesia (Months 6-12, Once in Week 1): 13.8%
Lethargy (Months 6-12, Once in Week 1): 0%
Vomiting (Months 6-12, Once in Week 1): 10.5%
Anxiety (Months 6-12, Overall): 2.2%
Feeling Drunk (Months 6-12, Overall): 1.5%
Hypoesthesia (Months 6-12, Overall): 3.2%
Lethargy (Months 6-12, Overall): 0.2%
Vomiting (Months 6-12, Overall): 2.2%
Anxiety (Months 6-12, Twice in Week 1): 50.0%
Feeling Drunk (Months 6-12, Twice in Week 1): 85.7%
Hypoesthesia (Months 6-12, Twice in Week 1): 40.0%
Lethargy (Months 6-12, Twice in Week 1): 0%
Vomiting (Months 6-12, Twice in Week 1): 0%
Clinician-reported dissociation [3]: 8.8%
Clinician-reported increased blood pressure [3]: 2.2%
Clinician-reported sedation [3]: 2.5%
Dizziness [3]: 8.1%
Nausea [3]: 6.7%
Vertigo [3]: 5.0%
Clinician-reported dissociation [4]: 17.1%
Clinician-reported increased blood pressure [4]: 4.4%
Clinician-reported sedation [4]: 3.9%
Dizziness [4]: 21.1%
Nausea [4]: 14.3%
Vertigo [4]: 12.4%
